In ChEMBL document CHEMBL5113419:
Activity calls are given as the source filed them. The rule behind the calls is not given here.

Legend:
[1] = target: T1, Suppressor of tumorigenicity 14 protein (Homo sapiens, UniProt Q9Y5Y6); assay: (§1) Binding affinity to N-terminal MRGS(His)6GSDDDDK-tagged Matriptase (unknown origin) expressed in Escherichia coli assessed as inhibition constant using Mes-DArg-Pro-Arg-AMC as substrate
T1 sequence (Q9Y5Y6 whole entry): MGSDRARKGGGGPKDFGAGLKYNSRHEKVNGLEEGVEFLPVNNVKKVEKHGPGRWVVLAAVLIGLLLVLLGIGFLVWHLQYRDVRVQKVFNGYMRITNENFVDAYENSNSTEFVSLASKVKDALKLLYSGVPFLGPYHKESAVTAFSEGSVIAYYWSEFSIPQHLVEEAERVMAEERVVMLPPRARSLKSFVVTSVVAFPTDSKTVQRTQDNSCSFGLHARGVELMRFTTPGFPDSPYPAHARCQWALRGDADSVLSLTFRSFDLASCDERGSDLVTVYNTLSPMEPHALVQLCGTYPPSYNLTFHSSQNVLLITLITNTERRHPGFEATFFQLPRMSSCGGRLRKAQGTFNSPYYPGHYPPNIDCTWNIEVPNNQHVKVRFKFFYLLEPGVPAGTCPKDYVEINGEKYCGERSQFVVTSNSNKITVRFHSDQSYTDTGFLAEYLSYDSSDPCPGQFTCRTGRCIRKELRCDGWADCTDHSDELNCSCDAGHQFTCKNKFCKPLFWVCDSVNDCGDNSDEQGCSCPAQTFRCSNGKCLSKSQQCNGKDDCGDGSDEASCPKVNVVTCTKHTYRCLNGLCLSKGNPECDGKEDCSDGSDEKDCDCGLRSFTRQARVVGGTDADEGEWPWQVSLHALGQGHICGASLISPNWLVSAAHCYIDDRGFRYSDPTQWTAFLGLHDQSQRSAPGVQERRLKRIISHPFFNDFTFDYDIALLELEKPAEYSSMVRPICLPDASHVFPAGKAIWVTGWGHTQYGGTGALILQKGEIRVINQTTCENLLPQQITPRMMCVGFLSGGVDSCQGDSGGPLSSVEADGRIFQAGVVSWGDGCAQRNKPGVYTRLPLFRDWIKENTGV

Prothrombin = Prothrombin (Bos taurus, UniProt P00735); assay: Binding affinity to bovine thrombin assessed as inhibition constant using tosyl-Gly-Pro-Arg-AMC as substrate
Coagulation factor X = Coagulation factor X (Homo sapiens, UniProt P00742); assay: Binding affinity to FXa (unknown origin) using Mes-DArg-Pro-Arg-AMC as substrate
[2] = as §1, with “Selectivity ratio of Ki for binding affinity to bovine thrombin assessed as inhibition constant using tosyl-Gly-Pro-Arg-AMC as substrate to Ki for binding” for “Binding”; conditions: Homo sapiens
Homo sapiens = organism: Homo sapiens; assay: Selectivity ratio of Ki for binding affinity to FXa (unknown origin) using Mes-DArg-Pro-Arg-AMC as substrate to Ki for binding affinity to N-terminal MRGS(His)6GSDDDDK-tagged Matriptase (unknown origin ) expressed in Escherichia coli assessed as inhibition constant using Mes-DArg-Pro-Arg-AMC as substrate
MDCK-II = assay: Cytotoxicity against MDCK-II cells assessed as reduction in cell viability at 50 uM measured for 24 hrs by Celltiter-glo luminescent assay; format: toxicity, cell-based, Canis lupus familiaris; conditions: dog
Influenza A virus [3] = assay: Antiviral activity against Influenza A virus H9N2 infected in MDCK-II cells assessed as inhibition of viral replication measured after 24 hrs by immunostaining based assay; format: functional, organism-based; conditions: DDE = dose-dependent effect
Influenza A virus [4] = assay: Antiviral activity against Influenza A virus H9N2 infected in MDCK-II cells assessed as reduction in comet-shaped foci at 50 uM measured after 24 hrs by immunostaining based assay; format: functional, organism-based
Influenza A virus [5] = assay: Antiviral activity against Influenza A virus H9N2 infected in MDCK-II cells assessed as reduction in comet-shaped foci at 20 uM measured after 24 hrs by immunostaining based assay; format: functional, organism-based
Influenza A virus [6] = assay: Antiviral activity against Influenza A virus H9N2 infected in MDCK-II cells assessed as reduction in viral titer in supernatants at 5 to 50 uM measured after 24 hrs by plaque assay; format: functional, organism-based; conditions: dose 5-50 µM
[7] = Binding affinity to bovine trypsin assessed as inhibition constant […]; set-up: species or system Bos taurus

Coagulation factor X, sequence (P00742 41-179 limits assumed): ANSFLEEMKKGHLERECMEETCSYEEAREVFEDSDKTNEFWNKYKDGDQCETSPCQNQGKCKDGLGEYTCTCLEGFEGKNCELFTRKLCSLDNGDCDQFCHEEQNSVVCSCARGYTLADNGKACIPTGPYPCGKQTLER
Coagulation factor X, sequence (P00742 235-488 limits assumed): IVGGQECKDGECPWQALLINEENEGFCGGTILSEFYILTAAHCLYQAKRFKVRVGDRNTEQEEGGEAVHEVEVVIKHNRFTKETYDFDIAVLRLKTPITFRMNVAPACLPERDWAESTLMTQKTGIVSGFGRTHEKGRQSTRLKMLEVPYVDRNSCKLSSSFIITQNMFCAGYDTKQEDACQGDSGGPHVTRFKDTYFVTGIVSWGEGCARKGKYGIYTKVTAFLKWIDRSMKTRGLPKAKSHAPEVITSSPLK

SMILES	Ki [1] [nM]	Ki (Prothrombin) [nM]	Ki (Coagulation factor X) [nM]	Ratio Ki [2]	Ratio Ki (Homo sapiens)	Activity (MDCK-II)	Activity (Influenza A virus [3])	Activity (Influenza A virus [4])	Activity (Influenza A virus [5])	Activity (Influenza A virus [6])	Ki [7] [nM]
COc1ccc(-c2cccc(S(=O)(=O)N[C@@H](Cc3cccc(C(=N)N)c3)C(=O)N3CCN(C(=O)NC4CCCCC4)CC3)c2)c(OC)c1	38	912	10	24	0.3	Toxic	Dde	Active	Active	Active	
COc1ccc(-c2cccc(S(=O)(=O)N[C@@H](Cc3cccc(C(=N)N)c3)C(=O)N3CCC(NC(=O)NC(C)C)CC3)c2)c(OC)c1	8	228	3	29	0.4						
CC(C)(C)NC(=O)NC1CCN(C(=O)[C@H](Cc2cccc(C(=N)N)c2)NS(=O)(=O)c2cccc(-c3ccc(Cl)cc3Cl)c2)CC1	5	174	4	35	0.8						
COc1ccc(-c2cccc(S(=O)(=O)N[C@@H](Cc3cccc(C(=N)N)c3)C(=O)N3CCN(C(=O)NC(C)(C)C)CC3)c2)c(OC)c1	104	73	13	0.7	0.1						
CC(C)(C)NC(=O)NC1CCN(C(=O)[C@H](Cc2cccc(C(=N)N)c2)NS(=O)(=O)c2cccc(-c3cccc(CO)c3)c2)CC1	59	490	33	8.3	0.6						
COc1ccc(-c2cccc(S(=O)(=O)N[C@@H](Cc3cccc(C(=N)N)c3)C(=O)N3CCN(C(=O)OC(C)(C)C)CC3)c2)c(OC)c1	17	12	52	0.7	3.1						
COc1ccc(-c2cccc(S(=O)(=O)N[C@@H](Cc3cccc(C(=N)N)c3)C(=O)N3CCN(C(=O)C(C)(C)C)CC3)c2)c(OC)c1	143	42	116	0.3	0.8						
CC(C)(C)NC(=O)NC1CCN(C(=O)[C@H](Cc2cccc(C(=N)N)c2)NS(=O)(=O)c2cccc(-c3ccc(CO)c(F)c3)c2)CC1	15	23000	190	1530	13	Toxic	Dde	Active	Active	Active	0.6
COc1ccc(-c2cccc(S(=O)(=O)N[C@@H](Cc3cccc(C(=N)N)c3)C(=O)N3CCN(C(=O)C4CCCCC4)CC3)c2)c(OC)c1	43	414	95	10	2.2						
CC(C)(C)NC(=O)NC1CCN(C(=O)[C@H](Cc2cccc(C(=N)N)c2)NS(=O)(=O)c2cccc(-c3ccc(C(=N)N)cc3)c2)CC1	0.8	449	84	561	105						
COCc1ccc(-c2cccc(S(=O)(=O)N[C@@H](Cc3cccc(C(=N)N)c3)C(=O)N3CCC(NC(=O)NC(C)(C)C)CC3)c2)cc1	9	1790	179	199	20						
Cc1ccc(-c2cccc(S(=O)(=O)N[C@@H](Cc3cccc(C(=N)N)c3)C(=O)N3CCC(NC(=O)NC(C)(C)C)CC3)c2)cc1	7	412	28	59	4						
